Values of other authors in patent publication US20080262061A1, “COMPOSITION AND USE OF A LIQUID FUNGICIDAL FORMULATION OF MYCLOBUTANIL OR TEBUCONAZOLE FUNGICIDE” (HELENA HOLDING COMPANY, priority 2007, published 2008).

Conditions: background statement

Row | Compound | water solubility
1 | CCCCC(C#N)(Cn1cncn1)c1ccc(Cl)cc1 (centres unmarked) [Myclobutanil, 2-p-chlorophenyl-2-(1H-1,2,4-triazol-1-ylmethyl)hexanenitrile] | not significantly water soluble
2 | CC(C)(C)C(O)(CCc1ccc(Cl)cc1)Cn1cncn1 (racemic) [tebuconazole, (RS)-1-p-chlorophenyl-4,4-dimethyl-3-(1H-1,2,4-triazol-1-ylmethyl)═pentan-3-ol] | not significantly water soluble
